# Source: patent publication US10815238B2, “Antimicrobial compounds and methods of making and using the same” (BIOVERSYS AG, priority 2013, dated 2020)
# Tested on: Eschericia coli (E. coli) strain ATCC25922
# Assay: Standard microdilution assay, MIC against E. coli ATCC25922
# Assay type: cell-based
# Conditions: Escherichia coli; E. coli strain ATCC25922, standard microdilution assay; cutoff 16 micrograms/mL; read-out: MIC E. Coli
# Protocol: The in vitro activity of the compounds of the present invention can be determined. Antimicrobial testing is typically performed to determine the minimum inhibitory concentration (MIC). Minimum inhibitory concentrations (MICs) are determined by the microdilution method in a final volume of 100 μl according to protocols outlined by The Clinical and Laboratory Standards Institute (CLSI). Performance standards for reference strains are assessed within the same experimental design to maintain quality control. See, for example, Clinical Laboratory Standards Institute: Methods for dilution antimicrobial susceptibility tests for bacteria that grow aerobically M7-A8. Approved Standard-Eighth Edition. Wayne, Pa.: CLSI; December 2008; and Clinical Laboratory Standards Institute: Performance Standards for Antimicrobial Susceptibility Testing M100-S20; Approved Standard-Twentieth Edition. Wayne, Pa.: CLSI; June 2010.
# The compounds of the present invention were tested for antimicrobial activity. The Compounds 1-582 were run against Eschericia coli (E. coli) strain ATCC25922 and Compounds 320-582 were run against Staphylococcus aureus (S. aureus) 11540 strain using a standard microdilution assay to determine minimum inhibitory concentrations (MICs). […] It will be recognized by one skilled in the art that the compounds can be assessed against other bacterial organisms and that the presentation of data for activity against Eschericia coli and Staphylococcus aureus are illustrative and in no way is intended to limit the scope of the present invention. The compounds of the present invention can be assayed against a range of other microorganisms depending upon the performance activity desired to be gathered. Furthermore, the “+” and “−” representation and the selection of a cutoff value of 16 micrograms/mL is also illustrative and in no way is intended to limit the scope of the present invention.
row,MIC,SMILES
1,< 16 µg/mL,C[C@H](N)CCCc1cc(-c2cc3cn(-c4ccc([C@@H](CO)NCCCNC(=N)N)cc4)c(=O)nc3[nH]2)cc(C(F)(F)F)c1 [Compound 51]
2,< 16 µg/mL,C[C@H](N)CCCc1cc(-c2cc3cn(-c4ccc(CN5CCCN(C(=N)N)CC5)cc4)c(=O)nc3[nH]2)cc(C(F)(F)F)c1 [Compound 52]
3,< 16 µg/mL,N=C(N)NCCCNCc1ccc(-n2cc3cc(-c4ccc(/C=N/OCCNC(=N)N)cc4)[nH]c3nc2=O)cc1 [Compound 53]
4,< 16 µg/mL,N=C(N)N1CCN(Cc2ccc(-n3cc4cc(-c5ccc(C(NC6CN(C(=N)N)C6)C(F)(F)F)cc5)[nH]c4nc3=O)cc2)CC1 (stereo not drawn) [Compound 54]
5,< 16 µg/mL,C[C@H](NCCCNC(=N)N)c1ccc(-n2cc3cc(-c4cc(CO[C@H](CN)CO)cc(SC(F)(F)F)c4)[nH]c3nc2=O)cc1 [Compound 55]
6,< 16 µg/mL,C[C@H](N)CCCc1cc(Cl)c(F)c(-c2cc3cn(-c4ccc([C@H](Cc5cccnc5)NCCCNC(=N)N)cc4)c(=O)nc3[nH]2)c1 [Compound 56]
7,< 16 µg/mL,C[C@H](N)CCCc1cc(SC(F)(F)F)cc(-c2cc3cn(-c4ccc([C@H](Cc5cccnc5)NCCCNC(=N)N)cc4)c(=O)nc3[nH]2)c1 [Compound 57]
8,< 16 µg/mL,C[C@H](N)CCCc1cc(SC(F)(F)F)cc(-c2cc3cn(-c4ccc([C@@H](NCCCNC(=N)N)C(N)=O)cc4)c(=O)nc3[nH]2)c1 [Compound 58]
9,< 16 µg/mL,C[C@H](N)CCCc1cc(-c2cc3cn(-c4ccc([C@@H](NCCCNC(=N)N)C(N)=O)cc4)c(=O)nc3[nH]2)cc(C(F)(F)F)c1 [Compound 59]
10,> 16 µg/mL,C[C@H](N)CCCc1cc(-c2cc3cn(-c4ccc([C@@H](NCCCNC(=N)N)c5ccc(S(C)(=O)=O)cc5)cc4)c(=O)nc3[nH]2)cc(C(F)(F)F)c1 [Compound 60]
11,< 16 µg/mL,C[C@H](N)CCCc1cc(Cl)c(F)c(-c2cc3cn(-c4ccc([C@@H](NCCCNC(=N)N)c5cccnc5)cc4)c(=O)nc3[nH]2)c1 [Compound 61]
12,< 16 µg/mL,C[C@H](N)CCCc1cc(-c2cc3cn(-c4cccc(CCNCCCNC(=N)N)c4)c(=O)nc3[nH]2)cc(C(F)(F)F)c1 [Compound 62]
13,< 16 µg/mL,C=C[C@H](N)COCc1cc(SC(F)(F)F)cc(-c2cc3cn(-c4ccc([C@H](C)NCCCNC(=N)N)cc4)c(=O)nc3[nH]2)c1 [Compound 63]
14,< 16 µg/mL,CC[C@H](N)COCc1cc(SC(F)(F)F)cc(-c2cc3cn(-c4ccc([C@H](C)NCCCNC(=N)N)cc4)c(=O)nc3[nH]2)c1 [Compound 64]
15,< 16 µg/mL,C[C@H](N)CC[C@@H](O)c1cc(SC(F)(F)F)cc(-c2cc3cn(-c4ccc([C@H](C)NCCCNC(=N)N)cc4)c(=O)nc3[nH]2)c1 [Compound 65]
16,< 16 µg/mL,C[C@H](N)CCCc1cc(SC(F)(F)F)cc(-c2cc3cn(-c4ccc([C@@H](NCCCNC(=N)N)c5cccnc5)cc4)c(=O)nc3[nH]2)c1 [Compound 66]
17,< 16 µg/mL,C[C@H](NCCCNC(=N)N)c1ccc(-n2cc3cc(-c4cc(CCC[C@H](C)NC(=O)OCc5ccccc5)cc(Cl)c4F)[nH]c3nc2=O)cc1 [Compound 67]
18,< 16 µg/mL,C[C@H](N)CC[C@H](O)c1cc(SC(F)(F)F)cc(-c2cc3cn(-c4ccc([C@H](C)NCCCNC(=N)N)cc4)c(=O)nc3[nH]2)c1 [Compound 68]
19,< 16 µg/mL,C[C@H](N)CCCc1cc(Cl)c(F)c(-c2cc3cn(-c4ccc([C@@H](CCc5ccncc5)NCCCNC(=N)N)cc4)c(=O)nc3[nH]2)c1 [Compound 69]
20,< 16 µg/mL,COC(=O)N[C@@H](C)CCCc1cc(Cl)c(F)c(-c2cc3cn(-c4ccc([C@H](C)NCCCNC(=N)N)cc4)c(=O)nc3[nH]2)c1 [Compound 70]
21,< 16 µg/mL,CCOC(=O)N[C@@H](C)CCCc1cc(Cl)c(F)c(-c2cc3cn(-c4ccc([C@H](C)NCCCNC(=N)N)cc4)c(=O)nc3[nH]2)c1 [Compound 71]
22,< 16 µg/mL,C[C@H](NCCCNC(=N)N)c1ccc(-n2cc3cc(-c4cc(CCC[C@H](C)NC(=O)CN)cc(Cl)c4F)[nH]c3nc2=O)cc1 [Compound 72]
23,< 16 µg/mL,C[C@H](N)CCCc1cc(-c2cc3cn(-c4ccc([C@H](CCF)NCCCNC(=N)N)cc4)c(=O)nc3[nH]2)cc(C(F)(F)F)c1 [Compound 73]
24,< 16 µg/mL,C[C@H](N)CCCc1cc(Cl)c(F)c(-c2cc3cn(-c4ccc([C@H](CCF)NCCCNC(=N)N)cc4)c(=O)nc3[nH]2)c1 [Compound 74]
25,< 16 µg/mL,C[C@H](N)CCCc1cc(SC(F)(F)F)cc(-c2cc3cn(-c4ccc([C@H](CCF)NCCCNC(=N)N)cc4)c(=O)nc3[nH]2)c1 [Compound 75]
26,> 16 µg/mL,CC(=O)N[C@@H](C)CCCc1cc(Cl)c(F)c(-c2cc3cn(-c4ccc([C@H](C)NCCCNC(=N)N)cc4)c(=O)nc3[nH]2)c1 [Compound 76]

row,MIC,SMILES
1,< 16 µg/mL,CC[C@@H](N)COCc1cc(SC(F)(F)F)cc(-c2cc3cn(-c4ccc([C@H](C)NCCCNC(=N)N)cc4)c(=O)nc3[nH]2)c1 [Compound 77]
2,< 16 µg/mL,C=C[C@H](N)CC[C@@H](O)c1cc(SC(F)(F)F)cc(-c2cc3cn(-c4ccc([C@H](C)NCCCNC(=N)N)cc4)c(=O)nc3[nH]2)c1 [Compound 78]
3,< 16 µg/mL,C=C[C@@H](N)CC[C@@H](O)c1cc(SC(F)(F)F)cc(-c2cc3cn(-c4ccc([C@H](C)NCCCNC(=N)N)cc4)c(=O)nc3[nH]2)c1 [Compound 79]
4,< 16 µg/mL,C[C@H](NCCCNC(=N)N)c1ccc(-n2cc3cc(-c4cc(COC[C@@H](N)CO)cc(SC(F)(F)F)c4)[nH]c3nc2=O)cc1 [Compound 80]
5,< 16 µg/mL,C=CCC[C@H](NCCCNC(=N)N)c1ccc(-n2cc3cc(-c4cc(CCC[C@H](C)N)cc(Cl)c4F)[nH]c3nc2=O)cc1 [Compound 81]
6,< 16 µg/mL,C=CCC[C@H](NCCCNC(=N)N)c1ccc(-n2cc3cc(-c4cc(CCC[C@H](C)N)cc(SC(F)(F)F)c4)[nH]c3nc2=O)cc1 [Compound 82]
7,< 16 µg/mL,CSC[C@H](N)COCc1cc(SC(F)(F)F)cc(-c2cc3cn(-c4ccc([C@H](C)NCCCNC(=N)N)cc4)c(=O)nc3[nH]2)c1 [Compound 83]
8,< 16 µg/mL,C[C@H](N)CCCc1cc(-c2cc3cn(-c4ccc([C@@H](NCCCNC(=N)N)c5cccnc5)cc4)c(=O)nc3[nH]2)cc(C(F)(F)F)c1 [Compound 84]
9,< 16 µg/mL,C[C@H](N)CCCc1cc(Cl)c(F)c(-c2cc3cn(-c4ccc([C@H](CCNc5nccs5)NCCCNC(=N)N)cc4)c(=O)nc3[nH]2)c1 [Compound 85]
10,< 16 µg/mL,C[C@H](N)CCCc1cc(SC(F)(F)F)cc(-c2cc3cn(-c4ccc([C@@H](CCc5ccncc5)NCCCNC(=N)N)cc4)c(=O)nc3[nH]2)c1 [Compound 86]
11,< 16 µg/mL,C[C@H](N)CCCc1cc(Cl)c(F)c(-c2cc3cn(-c4ccc([C@H](Cn5ccnn5)NCCCNC(=N)N)cc4)c(=O)nc3[nH]2)c1 [Compound 87]
12,< 16 µg/mL,C[C@H](N)CCCc1cc(SC(F)(F)F)cc(-c2cc3cn(-c4ccc([C@H](Cn5ccnn5)NCCCNC(=N)N)cc4)c(=O)nc3[nH]2)c1 [Compound 88]
13,< 16 µg/mL,N=C(N)NCCCNCc1cccc(-n2cc3cc(-c4ccc(C(NC5CN(C(=N)N)C5)C(F)(F)F)cc4)[nH]c3nc2=O)c1 (stereo not drawn) [Compound 89]
14,< 16 µg/mL,C[C@H](N)CCCc1cc(Cl)c(F)c(-c2cc3cn(-c4cccc(CNCCCNC(=N)N)c4)c(=O)nc3[nH]2)c1 [Compound 90]
15,< 16 µg/mL,C=C[C@H](N)CC[C@H](O)c1cc(SC(F)(F)F)cc(-c2cc3cn(-c4ccc([C@H](C)NCCCNC(=N)N)cc4)c(=O)nc3[nH]2)c1 [Compound 91]
16,< 16 µg/mL,C[C@H](N)CCCc1cc(Cl)c(F)c(-c2cc3cn(-c4ccc([C@H](N)CCCCNC(=N)N)cc4)c(=O)nc3[nH]2)c1 [Compound 92]
17,< 16 µg/mL,C[C@H](N)CCCc1cc(SC(F)(F)F)cc(-c2cc3cn(-c4ccc([C@H](N)CCCCNC(=N)N)cc4)c(=O)nc3[nH]2)c1 [Compound 93]
18,< 16 µg/mL,C[C@H](N)CCCc1cc(-c2cc3cn(-c4ccc([C@H](Cn5ccnn5)NCCCNC(=N)N)cc4)c(=O)nc3[nH]2)cc(C(F)(F)F)c1 [Compound 94]
19,< 16 µg/mL,C[C@H](N)CCCc1cc(Cl)c(F)c(-c2cc3cn(-c4ccc([C@@H](CF)NCCCNC(=N)N)cc4)c(=O)nc3[nH]2)c1 [Compound 95]
20,< 16 µg/mL,C[C@H](N)CCCc1cc(SC(F)(F)F)cc(-c2cc3cn(-c4ccc([C@@H](CF)NCCCNC(=N)N)cc4)c(=O)nc3[nH]2)c1 [Compound 96]
21,< 16 µg/mL,C[C@H](N)CCCc1cc(-c2cc3cn(-c4ccc([C@@H](CF)NCCCNC(=N)N)cc4)c(=O)nc3[nH]2)cc(C(F)(F)F)c1 [Compound 97]
22,< 16 µg/mL,C[C@H](N)CCCc1cc(-c2cc3cn(-c4ccc([C@H]5COC(=O)N5CCCNC(=N)N)cc4)c(=O)nc3[nH]2)cc(C(F)(F)F)c1 [Compound 98]
23,< 16 µg/mL,C[C@H](N)CCCc1cc(Cl)c(F)c(-c2cc3cn(-c4ccc([C@H](CCCO)NCCCNC(=N)N)cc4)c(=O)nc3[nH]2)c1 [Compound 99]
24,< 16 µg/mL,C[C@H](N)CCCc1cc(SC(F)(F)F)cc(-c2cc3cn(-c4ccc([C@H](CCCO)NCCCNC(=N)N)cc4)c(=O)nc3[nH]2)c1 [Compound 100]
25,< 16 µg/mL,C[C@H](N)CCCc1cc(-c2cc3cn(-c4ccc([C@H](CCCO)NCCCNC(=N)N)cc4)c(=O)nc3[nH]2)cc(C(F)(F)F)c1 [Compound 101]
